Laboratory results: ChEMBL document CHEMBL5726706, “C-linked heterocycloaklyl substituted pyrimidines and their uses” (2018)
pKi: −log10 of the molar value.

Target: T1, Mitogen-activated protein kinase kinase kinase 12 (Homo sapiens, UniProt Q12852)
T1 sequence (Q12852 whole entry): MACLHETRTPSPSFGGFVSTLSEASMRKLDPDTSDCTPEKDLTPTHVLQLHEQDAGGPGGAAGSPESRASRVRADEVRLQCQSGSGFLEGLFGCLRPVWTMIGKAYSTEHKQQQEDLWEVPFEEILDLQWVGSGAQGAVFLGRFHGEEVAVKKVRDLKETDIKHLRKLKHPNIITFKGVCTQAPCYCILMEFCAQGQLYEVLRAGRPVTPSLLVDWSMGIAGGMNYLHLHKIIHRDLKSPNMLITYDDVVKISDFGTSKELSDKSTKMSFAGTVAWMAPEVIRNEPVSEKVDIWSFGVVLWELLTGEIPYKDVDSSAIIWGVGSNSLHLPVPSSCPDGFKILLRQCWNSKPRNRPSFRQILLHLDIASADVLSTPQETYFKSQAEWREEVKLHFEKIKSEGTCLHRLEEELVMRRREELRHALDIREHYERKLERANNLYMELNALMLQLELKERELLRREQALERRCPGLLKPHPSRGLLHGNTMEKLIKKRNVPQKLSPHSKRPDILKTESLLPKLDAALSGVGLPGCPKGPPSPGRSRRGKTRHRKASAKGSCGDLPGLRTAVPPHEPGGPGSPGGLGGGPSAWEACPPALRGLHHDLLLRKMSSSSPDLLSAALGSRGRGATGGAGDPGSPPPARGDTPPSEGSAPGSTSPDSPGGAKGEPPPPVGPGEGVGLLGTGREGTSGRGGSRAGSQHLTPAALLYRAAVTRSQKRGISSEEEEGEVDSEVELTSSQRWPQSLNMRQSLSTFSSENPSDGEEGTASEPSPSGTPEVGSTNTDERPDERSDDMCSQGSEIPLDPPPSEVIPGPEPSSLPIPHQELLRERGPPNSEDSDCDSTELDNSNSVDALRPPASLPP
Assay: TR-FRET assay: DLK kinase reactions (20 μL) containing 5 nM N-terminally GST-tagged DLK (catalytic domain amino acid 1-520) (Carna Bioscience), 40 nM N-terminally HIS-tagged MKK4 K131M substrate, and 30 μM ATP in kinase reaction buffer (50 mM HEPES, pH 7.5, 0.01% Triton X-100, 0.01% Bovine γ-Globulins, 2 mM DTT, 10 mM MgCl2 and 1 mM EGTA), and testing compound 1:3 serial diluted starting at 20 uM were incubated at ambient temperature for 60 minutes in 384 well OptiPlate (Perkin Elmer). To quench kinase reactions and detect phosphorylated MKK4, 15 μL of TR-FRET antibody mixture containing 2 nM anti-phosphorylated MKK4 labeled with Europium cryptate (Cisbio) and 23 nM anti-HIS labeled with D2 (Cisbio) in detection buffer (25 mM Tris pH 7.5, 100 mM NaCl, 100 mM EDTA, 0.01% Tween-20, and 200 mM KF) was added to the reaction mixture. The detection mixture was incubated for 3 hours at ambient temperature and the TR-FRET was detected with an EnVision multilabel plate reader (Perkin-Elmer) using the LANCE/DELFIA Dual Enh label from Perkin-Elmer (excitation filter: UV2 (TRF) 320 and emission filters: APC 665 and Europium 615).

pKi | Compound
6.19 | Cc1ccnc(Nc2cc(C3CCCN(C(=O)Cc4ccccc4)C3)nc(C)n2)c1 (configuration not stated)
7.26 | COC[C@H]1CCCN1c1nc(Nc2cc(C(F)(F)F)ccn2)cc(C2CCN(C(C)=O)CC2)n1
